Source: patent USRE46792E1, “Oxazole compound and pharmaceutical composition” (Otsuka Pharmaceutical Co., Ltd., priority 2005, dated 2018)

Each compound was assayed against human PDE4D3 (PDE4D) (Homo sapiens (Human), UniProt Q08499) (assay: Phosphodiesterase (PDE)4 inhibitory activity evaluation test ([3H]cAMP hydrolysis by PDE4D enzyme solution)). Settings: recombinant human PDE4D3 expressed in COS-7 cells; [3H]cAMP substrate; 10 min at 30° C.; 2% DMSO.
Format: biochemical
Description: Phosphodiesterase (PDE)4 Inhibitory Activity Evaluation Test
(1) Large Scale Plasmid Preparation
Plasmid containing genes (HPDE4D) coding for human PDE4D3 cDNA (stored in Otsuka America Pharmaceutical, Inc., Maryland Research Laboratories) was transformed in E. coli, cultured on a large scale, and purified using an EndoFree™ Plasmid Maxi Kit (Qiagen).
(2) Abundant Expression and Purification of PDE4D
COS-7 cells derived from African green monkey kidneys were passage cultured in D-MEM media containing 100 units/ml penicillin, 100 μg/ml streptomycin, and 10% FBS. The cells were transfected with the plasmid prepared in (1) above using Lipofectamine™ 2000 (hereinafter referred to as “LF2000”, Invitrogen), following the manufacturer's protocol. The COS-7 cells were inoculated in a 10 cm culture dish on the previous day so as to be 90% confluent on the day of transfection. Culture dishes each containing a plasmid solution (solution A) in which 24 μg of plasmid was diluted in 1.5 ml Opti-MEM I Reduced Serum Medium (Invitrogen) and an LF2000 solution (solution B) in which 60 μl of LF2000 was diluted in 1.5 ml Opti-MEM I Reduced Serum Medium were separately allowed to stand for 5 minutes at room temperature. Solutions A and B were then mixed and the mixture was allowed to stand for 20 minutes at room temperature. The mixture was added to the cultured cells, and incubated at 37° C. (5% CO2) overnight. On the following day, the medium was replaced, and the mixture was further incubated overnight to harvest the cells in the following manner. The cells were washed with PBS (Sigma) once, and 10 ml of a Trypsin-EDTA solution (Sigma) was added to each culture dish. After the solution was distributed to each of the culture dishes, the cells were detached, and the dishes were allowed to stand for about 5 minutes at 37° C. The detached cells from the dishes were suspended in media, collected into centrifuge tubes, and centrifuged at 1200 rpm for 5 minutes at 4° C., and supernatants were removed. The cells were further washed with PBS, and stored at −80° C. KHEM buffer (100 mM Hepes, 50 mM KCl, 10 mM EGTA, 1.92 mM MgCl2, pH 7.4) containing 1 mM DTT, 1 μg/ml antipain, 1 μg/ml aprotinin, 1 μg/ml leupeptin, 1 μg/ml pepstatin A, 157 μg/ml benzamidine, and 120 μg/ml Pefabloc SC was added to the stored cells, and the contents were moved to a glass homogenizer to be homogenized on ice. The cell suspension was centrifuged at 1000 rpm for 5 minutes at 4° C., and the supernatant was further centrifuged at 14000 rpm for one hour. After centrifugation, the supernatant was dispensed into new tubes as PDE4D enzyme solutions, and stored in a deep freezer.
(3) Determination on Dilution Ratio of PDE4D Enzyme Solutions
The PDE4D enzyme solutions prepared in (2) above were dissolved in 20 mM Tris-HCl solution (pH 7.4) to give 10-, 25-, 50-, 100-, 200-, 400-, and 800-fold dilutions of the enzyme solutions. PDE4D activities were measured according to (4) below. The percentage of catalyzed cAMP to total cAMP was calculated, and such a dilution, in which the percentage was between 10% and 30%, was adopted in the inhibitory study below.
(4) Measurement of PDE4D Inhibitory Activity
Necessary amounts of test compounds were weighed, and 100% dimethylsulfoxide (DMSO) was added thereto to adjust the concentration to 10 mM. The solutions were stored in a freezer as stock solutions of each test compound. After being thawed when required, the solutions were diluted 20-fold with 100% DMSO to give a 500 μM concentration. Further, 10-fold serial dilutions were made with 100% DMSO to prepare test compounds of different concentrations. 2 μl of solutions containing one of each of the test compound were separately added into 1.2 ml tubes in which 23 μl of 20 mM Tris-HCl (pH 7.4) had been placed beforehand. […]

Sequence of human PDE4D3 (PDE4D) (Q08499 other isoform, or with tags, fused parts or gaps): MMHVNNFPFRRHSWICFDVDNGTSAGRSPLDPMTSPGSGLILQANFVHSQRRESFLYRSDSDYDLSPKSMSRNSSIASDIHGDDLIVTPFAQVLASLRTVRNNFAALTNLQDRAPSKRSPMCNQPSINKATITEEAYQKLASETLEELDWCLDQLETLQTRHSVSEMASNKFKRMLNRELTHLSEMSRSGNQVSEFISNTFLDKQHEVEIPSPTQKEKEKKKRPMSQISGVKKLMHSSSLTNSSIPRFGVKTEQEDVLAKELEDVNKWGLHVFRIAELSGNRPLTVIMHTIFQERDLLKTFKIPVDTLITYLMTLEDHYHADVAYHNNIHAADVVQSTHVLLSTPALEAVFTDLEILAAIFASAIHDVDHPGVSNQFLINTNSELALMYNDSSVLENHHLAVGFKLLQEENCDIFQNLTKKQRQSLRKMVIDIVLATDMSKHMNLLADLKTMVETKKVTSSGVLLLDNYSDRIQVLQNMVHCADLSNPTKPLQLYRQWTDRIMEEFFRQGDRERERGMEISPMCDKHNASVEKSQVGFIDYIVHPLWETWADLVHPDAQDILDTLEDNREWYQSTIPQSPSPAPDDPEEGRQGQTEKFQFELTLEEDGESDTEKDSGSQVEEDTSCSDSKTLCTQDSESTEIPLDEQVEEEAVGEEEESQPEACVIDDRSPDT

| SMILES | IC50 |
| --- | --- |
| COc1ccc(-c2nc(CNC(=O)c3ccccc3OC)co2)cc1OC1CCCC1 [Example 35, N-[2-(3-cyclopentyloxy-4-methoxyphenyl)oxazol-4-ylmethyl]-2-methoxybenzamide] | < 50 nM |
| CCOc1ccccc1C(=O)NCc1coc(-c2ccc(OC)c(OCC(C)C)c2)n1 [Example 14, N-[2-(3-isobutoxy-4-methoxyphenyl)oxazol-4-ylmethyl]-2-ethoxy benzamide] | < 50 nM |
| COc1ccc(-c2nc(CCC(=O)c3ccccc3OCC(F)F)co2)cc1OCC(F)F [Example 284, 3-{2-[3-(2,2-difluoroethoxy)-4-methoxyphenyl]oxazol-4-yl}-1-[2-(2,2-difluoroethoxy)phenyl]propan-1-one] | < 50 nM |
| CCOc1cc(-c2nc(CCC(=O)c3ccc(F)cc3OCC)co2)ccc1OC [Example 304, 1-(2-ethoxy-4-fluorophenyl)-3-[2-(3-ethoxy-4-methoxyphenyl)oxazol-4-yl]propan-1-one] | < 50 nM |
| CCCOc1cc(-c2nc(CCC(=O)c3ncccc3C)co2)ccc1OC [Example 143, 3-[2-(4-methoxy-3-propoxyphenyl)oxazol-4-yl]-1-(3-methylpyridin-2-yl)propan-1-one] | < 50 nM |
| C=CCOc1cc(-c2nc(CCC(=O)c3ccccc3OCC)co2)ccc1OC [Example 104, 3-[2-(3-allyloxy-4-methoxyphenyl)oxazol-4-yl]-1-(2-ethoxyphenyl)propan-1-one] | < 50 nM |
| CCOc1cccnc1C(=O)NCc1coc(-c2ccc(OC)c(OC3CCCC3)c2)n1 [Example 29, N-[2-(3-cyclopentyloxy-4-methoxyphenyl)oxazol-4-ylmethyl]-3-ethoxypicolinamide] | < 50 nM |
| COc1ccc(-c2nc(CNC(=O)c3ccc(F)cc3OC)co2)cc1OCC1CC1 [Example 42, N-[2-(3-cyclopropylmethoxy-4-methoxyphenyl)oxazol-4-ylmethyl]-4-fluoro-2-methoxybenzamide] | < 50 nM |
| COc1ccc(-c2nc(CNC(=O)c3ncccc3C)co2)cc1OCC(F)(F)F [Example 19, N-{2-[4-methoxy-3-(2,2,2-trifluoroethoxy)phenyl]oxazol-4-ylmethyl}-3-methylpicolinamide] | < 50 nM |
| Cc1cccnc1C(=O)NCc1coc(-c2ccc(OC(F)F)c(OCC3CC3)c2)n1 [Example 98, N-[2-(3-cyclopropylmethoxy-4-difluoromethoxyphenyl)oxazol-4-ylmethyl]-3-methylpicolinamide] | < 50 nM |
| CCOc1cc(-c2nc(CCC(=O)c3ccccc3OC)co2)ccc1OC [Example 172, 3-[2-(3-ethoxy-4-methoxyphenyl)oxazol-4-yl]-1-(2-methoxyphenyl)propan-1-one] | < 50 nM |
| COc1ccc(-c2nc(CCC(=O)c3ccccc3OCCF)co2)cc1OC(C)C [Example 275, 1-(2-fluoroethoxyphenyl)-3-[2-(3-isopropoxy-4-methoxyphenyl)oxazol-4-yl]propan-1-one] | < 50 nM |
| C=CCCOc1cc(-c2nc(CCC(=O)c3ccccc3OCC)co2)ccc1OC [Example 108, 3-[2-(3-(3-butenyloxy)-4-methoxyphenyl)oxazol-4-yl]-1-(2-ethoxyphenyl)propan-1-one] | < 50 nM |
| C=CCOc1cc(-c2nc(CCC(=O)c3ncccc3C)co2)ccc1OC [Example 140, 3-[2-(3-allyloxy-4-methoxyphenyl)oxazol-4-yl]-1-(3-methylpyridin-2-yl)propan-1-one] | < 50 nM |
| CCCOc1cccnc1C(=O)NCc1coc(-c2ccc(OC)c(OCC3CC3)c2)n1 [Example 61] | < 50 nM |
| CCOc1ccccc1C(=O)NCc1coc(-c2ccc(OC(F)F)c(OCC(C)C)c2)n1 [Example 348, N-[2-(4-difluoromethoxy-3-isobutoxyphenyl)oxazol-4-ylmethyl]-2-ethoxybenzamide] | < 50 nM |
| CCOc1ccc(-c2nc(CCC(=O)c3ccccc3OCCF)co2)cc1OCC [Example 289, 3-[2-(3,4-diethoxyphenyl)oxazol-4-yl]-1-[2-(2-fluoroethoxy)phenyl]propan-1-one] | < 50 nM |
| CCOc1ccccc1C(=O)CCc1coc(-c2ccc(OC)c(OCC(F)F)c2)n1 [Example 314, 3-{2-[3-(2,2-difluoroethoxy)-4-methoxyphenyl]oxazol-4-yl}-1-(2-ethoxyphenyl)propan-1-one] | < 50 nM |
| COc1ccc(-c2nc(CNC(=O)c3ccccc3OC)co2)cc1OCC(C)C [Example 63, N-[2-(3-isobutoxy-4-methoxyphenyl)oxazol-4-ylmethyl]-2-methoxybenzamide] | < 50 nM |
| CCOc1ccccc1C(=O)NCc1coc(-c2ccc(OC(F)F)c(OC(CC)CC)c2)n1 [Example 355, N-{2-[4-difluoromethoxy-3-(1-ethylpropoxy)phenyl]oxazol-4-ylmethyl}-2-ethoxybenzamide] | < 50 nM |
| COc1ccc(-c2nc(CCC(=O)c3ncccc3C)co2)cc1OC1Cc2ccccc2C1 [Example 159, 3-{2-[3-(indan-2-yloxy)-4-methoxyphenyl]oxazol-4-yl}-1-(3-methylpyridin-2-yl)propan-1-one] | < 50 nM |
| COc1ccc(-c2nc(CNC(=O)c3ncccc3C)co2)cc1OCC(C)C [Example 62, N-[2-(3-isobutoxy-4-methoxyphenyl)oxazol-4-ylmethyl]-3-methylpicolinamide] | < 50 nM |
| Cc1cccnc1C(=O)NCc1coc(-c2ccc(OC(F)F)c(OCC(C)C)c2)n1 [Example 344, N-[2-(4-difluoromethoxy-3-isobutoxyphenyl)oxazol-4-ylmethyl]-3-methylpicolinamide] | < 50 nM |
| CCOc1ccccc1C(=O)NCc1coc(-c2ccc(OC(F)F)c(OCC3CC3)c2)n1 [Example 353, N-[2-(3-cyclopropylmethoxy-4-difluoromethoxyphenyl)oxazol-4-ylmethyl]-2-ethoxy benzamide] | < 50 nM |
| C=CCOc1cc(-c2nc(CNC(=O)c3ncccc3C)co2)ccc1OC [Example 21, N-[2-(3-allyloxy-4-methoxyphenyl)oxazol-4-ylmethyl]-3-methylpicolinamide] | < 50 nM |
| CCC(CC)Oc1cc(-c2nc(CNC(=O)c3ncccc3C)co2)ccc1OC(F)F [Example 342, N-{2-[4-difluoromethoxy-3-(1-ethylpropoxy)phenyl]oxazol-4-ylmethyl}-3-methylpicolinamide] | < 50 nM |
| COc1ccc(-c2nc(CCC(=O)c3ccccc3OC)co2)cc1OCC1CC1 [Example 170, 3-[2-(3-cyclopropylmethoxy-4-methoxyphenyl)oxazol-4-yl]-1-(2-methoxyphenyl)propan-1-one] | < 50 nM |
| C=CCOc1cc(-c2nc(CCC(=O)c3ccccc3OC)co2)ccc1OC [Example 174, 3-[2-(3-allyloxy-4-methoxyphenyl)oxazol-4-yl]-1-(2-methoxyphenyl)propan-1-one] | < 50 nM |
| COc1ccc(-c2nc(CCC(=O)c3ncccc3C)co2)cc1OCCC1CC1 [Example 153, 3-{2-[3-(2-cyclopropylethoxy)-4-methoxyphenyl]oxazol-4-yl}-1-(3-methylpyridin-2-yl)propan-1-one] | < 50 nM |
| COc1ccc(-c2nc(CNC(=O)c3ncccc3C)co2)cc1OC1Cc2ccccc2C1 [Example 22, N-{2-[3-(indan-2-yloxy)-4-methoxyphenyl]oxazol-4-ylmethyl}-3-methylpicolinamide] | < 50 nM |
